Like-named read-outs stand apart in the source and are kept apart here.
Experiments:
[1] = Lipophilicity; format: physicochemical
Excerpt: Table 3 In vitro physicochemical and ADME properties of SCYX-7158. | column: Value

[2] = Pharmacokinetics in uninfected rats; format: in vivo, rat; details: male, Sprague-Dawley, rat
Method: The blood distribution, CNS disposition and pharmacokinetics of SCYX-7158 were evaluated in infected or non-infected rodents following intravenous or oral administration of compounds. Pharmacokinetics and bioavailability of SCYX-7158 were also evaluated in non-infected beagle dogs and cynomolgus monkeys. In-life phases of non-infected rodent studies were performed at Vivisource (Waltham, MA); studies in non-naïve cynomolgus monkeys were performed by SNBL USA (Everett, WA). Male CD-1 mice (∼25 g), male Sprague-Dawley rats (∼225 g), or male cynomolgus monkeys (∼3–5 kg) were administered test article by either bolus intravenous injection (IV) or oral gavage. Animals in the IV groups received a single 2 mg/kg IV dose. Animals received oral doses of test articles as either single or twice daily doses ranging from 8 mg/kg to 50 mg/kg. All doses were administered as clear colorless solutions in either 50% (v/v) PEG 400: 20% (v/v) ethanol: 30% (v/v) carboxymethylcellulose (0.5% w/v in sterile water for injection) or 2% (v/v) ethanol: 5% (w/v) dextrose in sterile water for injection. […] For pharmacokinetic analysis, blood samples were collected from mice via cardiac puncture under terminal anaesthesia. Serial blood samples were collected from rats via a vascular access port located in the lateral saphenous vein. Mice and rats were euthanized in a CO2 chamber before collection of terminal blood samples or brain tissue. Blood samples were collected into polypropylene tubes containing K2EDTA anticoagulant and stored on ice until centrifuged for the preparation of plasma. Plasma was stored at −70°C. Whole brains were collected following decapitation, blotted dry, placed into polypropylene containers and then immediately frozen at approximately −70°C. CSF was collected from rats via cisterna magna puncture, placed in sterile polypropylene tubes, and stored at approximately −70°C. […] Treated samples were gently mixed at room temperature for 10 min, and then centrifuged at approximately 3000×g for 15 min at 15°C. The supernatants were transferred to 96-well plates or HPLC vials for analysis by LC-MS/MS. Pharmacokinetic parameters were calculated from composite mean plasma or tissue data using non-compartmental (oral and intravenous routes) and bi-exponential (intravenous route) analyses in Microsoft Excel.

[3] = Plasma protein binding by rapid equilibrium dialysis; format: in vitro ADME; details: for fraction unbound at 4 h: read-out: unbound fraction (fu)
Method: Binding to human or mouse plasma proteins or mouse brain homogenate was determined by rapid equilibrium dialysis (RED) (Pierce, Rockford, IL) using a 48-well plate-based format according to the manufacturer's instructions. Briefly, test compound at the required concentrations was added to fresh human or mouse plasma (Bioreclamation, Liverpool, NY) or freshly prepared mouse brain homogenate. Duplicate aliquots of each sample were transferred into the sample chambers of the RED devices, and dialysis buffer (BupH PBS) was added to the buffer chambers. The plates were sealed and incubated at 37°C for 4 h. After dialysis, samples collected from the buffer and tissue chambers were treated with ice-cold methanol (3 volumes for plasma, 4 volumes for brain) to precipitate proteins. The treated samples were centrifuged for 10 min at 3×10^3 g at 15°C. The supernatants were assayed for test compound by LC-MS/MS. Calibration standards and quality control samples were prepared in matched matrix and assayed with samples. Values for unbound and bound fractions and mass balance were calculated. Concordance of binding for each batch of plasma was confirmed by assay of warfarin, imipramine and carbamezapine. Acceptance criterion for mass balance was 70–120%.

[4] = Metabolic stability in liver microsomal and S9 fractions; format: in vitro ADME, rodents, cynomolgus monkey and humans; details: CD-1 (mouse), Sprague-Dawley (rat), beagle (dog), cynomolgus monkey, human, liver microsomes and liver S9 fractions, all species
Method: Metabolic stability was evaluated using mixed gender CD-1 mouse or human liver microsomal fractions (XenoTech, Lenexa, KS). Compounds (1 µM) were incubated with microsomes (1.05 mg/mL protein) for 0, 10, 15 and 30 min at 37°C in an oxygen and humidity enriched environment in the presence of an NADPH-regenerating system. Each compound was also incubated, under the same conditions, with CD-1 mouse, Sprague-Dawley rat, beagle dog, cynomolgus monkey, and human liver S9 sub-cellular fractions (2 mg/mL protein)[23] for 0, 15, 30 and 60 min. At the end of each incubation period, the reactions were quenched with 3 volumes of ice-cold methanol. Supernatants from the incubation mixtures were analyzed for parent compound by LC-MS/MS. Metabolic competencies of microsomal and S9 fractions were confirmed using control compounds 7-ethoxycoumarin, propranolol and verapamil. Intrinsic clearance (CLint) and half-life (t½) values were determined for each compound.

SMILES: CC1(C)OB(O)c2cc(NC(=O)c3ccc(F)cc3C(F)(F)F)ccc21 [SCYX-7158]
- logD [1]: 3.51
- Kp ([2]; brain/plasma, 25 mg/kg oral, read-out: brain to plasma AUC0–24 h ratio): 0.44
- CL/F ([2]; plasma, 25 mg/kg oral): 1.53 mL/min/kg
- Cmax ([2]; 25 mg/kg oral (nominal), plasma, read-out: Cmax): 18200 ng/mL
- AUC(0-t) ([2]; 25 mg/kg oral, CSF, read-out: AUC0–24 h in the CSF): 14.6 µg·h/mL
- Cmax ([2]; 25 mg/kg oral, CSF, read-out: Cmax in the CSF): 1080 ng/mL
- AUC(0-t) ([2]; 25 mg/kg oral, brain, read-out: AUC0–24 h in the brain): 129 µg·h/mL
- Cmax ([2]; 25 mg/kg oral, brain, read-out: Cmax in the brain): 8500 ng/mL
- Tmax ([2]; 25 mg/kg oral, plasma): 8 h
- AUC(0-t) ([2]; 25 mg/kg oral, plasma, read-out: AUC0–24 h): 291 µg·h/mL
- Cmax ([2]; oral dose of 10 mg/kg SCYX-7158, plasma, read-out: Cmax): 14300 ng/mL
- fraction unbound at 4 h, 1 µg/mL ([3]; human plasma): 0.013
- fraction unbound at 4 h, 50 µg/mL ([3]; human plasma): 0.055
- fraction unbound at 4 h ([3]; mouse, mouse plasma at the MIC (∼0.6 µg/mL)): 0.003
- fraction unbound at 4 h ([3]; mouse, mouse plasma at ∼15 µg/mL (Cmax at steady-state)): 0.032
- fraction unbound at 4 h, 1 µg/mL ([3]; mouse, mouse plasma): 0.0032
- fraction unbound at 4 h, 50 µg/mL ([3]; mouse, mouse plasma): 0.0463
- half-life at 1 µM [4]: > 5.83 h
- microsomal CLint at 1 µM ([4]; read-out: intrinsic clearance): < 5 µL/min/mg

— PMC3125149, “SCYX-7158, an Orally-Active Benzoxaborole for the Treatment of Stage 2 Human African Trypanosomiasis” (PLoS Neglected Tropical Diseases, 2011)
